US12173018B2, “Penicillin-binding protein inhibitors” (priority 2018, dated 2024)
≈ marks a conversion by molar mass, not a printed value.

Key:
A. baumannii ATCC 19606 = experiment: Broth microdilution MIC, A. baumannii ATCC 19606; format: cell-based; conditions: Acinetobacter baumannii, ATCC19606; A. baumannii ATCC 19606, broth microdilution; read-out: MIC A. baumannii ATCC 19606
In short: (§1)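 Broth microdilution MICs followed CLSI methods in cation-supplemented Mueller-Hinton broth, with 2-fold serial compound dilutions. Log-phase cultures grown 3–5 h were added to a starting inoculum of 5×10^5 CFU/mL and incubated 16–20 h at 37 °C. The MIC was read visually as the lowest concentration with no growth.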

N. gonorrhoeae WHO F = experiment: Liquid broth MIC, N. gonorrhoeae WHO F; format: cell-based; conditions: Neisseria gonorrhoeae; N. gonorrhoeae WHO F, liquid broth; read-out: Minimum Inhibitory Concentration, N. gonorrhoeae WHO F
In short: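 Broth microdilution in wild-type strains: colonies from GC agar with 1% Kellogg's supplement suspended in GC broth, inoculated at 5×10^5 CFU/mL into 2-fold compound dilutions. Plates incubated 40-42 hours at 36° C., 5% CO2; MIC read visually as lowest concentration with no growth.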

K. pneumoniae 848844 = experiment: microbe, parasite or virus in culture; format: cell-based, Klebsiella pneumoniae; conditions: Klebsiella pneumoniae; K. pneumoniae 848844 producing SHV-11 and KPC-2; read-out: MIC K. pneumoniae 848844
In short: as §1

[1] = test system: P. aeruginosa (ΔmexAB-oprM); experiment: microbe, parasite or virus in culture; format: cell-based; conditions: Pseudomonas aeruginosa, read-out: MIC P. aeruginosa ΔmexAB-OprM
In short: as §1

E. coli D22 = experiment: microbe, parasite or virus in culture; format: cell-based; conditions: Escherichia coli; hyper-permeable E. coli D22, broth microdilution; read-out: MIC E. coli D22
In short: as §1

P. aeruginosa ATCC 35151 = experiment: microbe, parasite or virus in culture; format: cell-based; conditions: Pseudomonas aeruginosa, ATCC35151; hyper-permeable P. aeruginosa ATCC 35151; read-out: MIC P. aeruginosa ATCC 35151
In short: as §1

K. pneumoniae UMM = experiment: microbe, parasite or virus in culture; format: cell-based; conditions: Klebsiella pneumoniae; K. pneumoniae UMM producing SHV-5 and KPC-2; read-out: MIC K. pneumoniae UMM
In short: as §1

E. coli AG100A = experiment: microbe, parasite or virus in culture; format: cell-based; conditions: Escherichia coli, read-out: MIC E. coli AG100A
In short: as §1

E. coli 901C = experiment: microbe, parasite or virus in culture; format: cell-based; conditions: Escherichia coli; hyper-permeable E. coli 901C, broth microdilution; read-out: MIC E. coli 901C
In short: as §1

K. pneumoniae SI-117 = experiment: microbe, parasite or virus in culture; format: cell-based; conditions: Klebsiella pneumoniae, SI117, read-out: MIC K. pneumoniae SI-117
In short: as §1

P. aeruginosa PAO1 = experiment: Broth microdilution MIC, P. aeruginosa PAO1; format: cell-based; conditions: Pseudomonas aeruginosa; P. aeruginosa PAO1, broth microdilution; read-out: MIC P. aeruginosa PAO1
In short: as §1

| SMILES | MIC (A. baumannii ATCC 19606) | MIC (N. gonorrhoeae WHO F) | MIC (K. pneumoniae 848844) | MIC [1] | MIC (E. coli D22) | MIC (P. aeruginosa ATCC 35151) | MIC (K. pneumoniae UMM) | MIC (E. coli AG100A) | MIC (E. coli 901C) | MIC (K. pneumoniae SI-117) | MIC (P. aeruginosa PAO1) |
| --- | --- | --- | --- | --- | --- | --- | --- | --- | --- | --- | --- |
| CCN1CCN(C(=O)N[C@@H](C(=O)N[C@H]2Cc3cccc(C(=O)O)c3OB2O)c2ccc(O)c(O)c2Cl)C(=O)C1=O [Example 190, (R)-3-((R)-2-(2-chloro-3,4-dihydroxyphenyl)-2-(4-ethyl-2,3-dioxopiperazine-1-carboxamido)acetamido)-2-hydroxy-3,4-dihydro-2H-benzo[e][1,2]oxaborinine-8-carboxylic acid] | < 0.25 µg/mL | 0.25 to 0.5 µg/mL (≈ 0.435 to 0.87 µM) | 0.5 to 1 µg/mL | < 0.25 µg/mL | 0.5 to 1 µg/mL | < 0.25 µg/mL | 0.5 to 1 µg/mL | < 0.25 µg/mL | < 0.25 µg/mL | 2 to 4 µg/mL | 0.5 to 1 µg/mL |
| CCN1C[C@@H](C)N(C(=O)NC(C(=O)N[C@H]2Cc3cccc(C(=O)O)c3OB2O)c2ncc(O)cc2F)C(=O)C1=O (stereo partly drawn) [Example 191, (3R)-3-(2-((R)-4-ethyl-6-methyl-2,3-dioxopiperazine-1-carboxamido)-2-(3-fluoro-5-hydroxypyridin-2-yl)acetamido)-2-hydroxy-3,4-dihydro-2H-benzo[e][1,2]oxaborinine-8-carboxylic acid] | > 128 µg/mL | 1 to 2 µg/mL (≈ 1.79 to 3.59 µM) | > 128 µg/mL | 32 to 64 µg/mL | 8 to 16 µg/mL | 2 to 4 µg/mL | > 128 µg/mL | 8 to 16 µg/mL | 0.5 to 1 µg/mL | > 128 µg/mL | > 128 µg/mL |
| CCN1CCN(C(=O)NC(C(=O)N[C@H]2Cc3cccc(C(=O)O)c3OB2O)c2ccc(O)c(O)c2F)C(=O)C1=O (stereo partly drawn) [Example 70] | 0.5 to 1 µg/mL | < 0.125 µg/mL | 8 to 16 µg/mL | 0.5 to 1 µg/mL | 2 to 4 µg/mL | < 0.25 µg/mL | 0.5 to 1 µg/mL | 0.5 to 1 µg/mL | 0.5 to 1 µg/mL | 8 to 16 µg/mL | 8 to 16 µg/mL |
| CCN1CCN(C(=O)NC(C(=O)N[C@H]2Cc3ccc(F)c(C(=O)O)c3OB2O)c2ncc(O)cc2Cl)C(=O)C1=O (stereo partly drawn) [Example 151, (3R)-3-(2-(3-chloro-5-hydroxypyridin-2-yl)-2-(4-ethyl-2,3-dioxopiperazine-1-carboxamido)acetamido)-7-fluoro-2-hydroxy-3,4-dihydro-2H-benzo[e][1,2]oxaborinine-8-carboxylic acid] | > 128 µg/mL | < 0.125 µg/mL | > 128 µg/mL | 8 to 16 µg/mL | 8 to 16 µg/mL | < 0.25 µg/mL | 32 to 64 µg/mL | 8 to 16 µg/mL | 0.5 to 1 µg/mL | 32 to 64 µg/mL | > 128 µg/mL |
| CCN1CCN(C(=O)NC(C(=O)N[C@H]2Cc3cccc(C(=O)O)c3OB2O)c2ncc(O)cc2Cl)C(=O)C1=O (stereo partly drawn) [Example 150, (3R)-3-(2-(4-ethyl-2,3-dioxopiperazine-1-carboxamido)-2-(3-chloro-5-hydroxypyridin-2-yl)acetamido)-2-hydroxy-3,4-dihydro-2H-benzo[e][1,2]oxaborinine-8-carboxylic acid] | > 128 µg/mL | 0.25 to 0.5 µg/mL (≈ 0.447 to 0.893 µM) | > 128 µg/mL | 32 to 64 µg/mL | 2 to 4 µg/mL | 2 to 4 µg/mL | 32 to 64 µg/mL | 2 to 4 µg/mL | 0.5 to 1 µg/mL | > 128 µg/mL | > 128 µg/mL |
| O=C(O)c1c(F)ccc2c1OB(O)[C@@H](NC(=O)C(NC(=O)N1CCN(CCF)C(=O)C1=O)c1ncc(O)cc1F)C2 (stereo partly drawn) [Example 183, (3R)-7-fluoro-3-(2-(3-fluoro-5-hydroxypyridin-2-yl)-2-(4-(2-fluoroethyl)-2,3-dioxopiperazine-1-carboxamido)acetamido)-2-hydroxy-3,4-dihydro-2H-benzo[e][1,2]oxaborinine-8-carboxylic acid] | > 128 µg/mL | < 0.125 µg/mL | > 128 µg/mL | 32 to 64 µg/mL | 2 to 4 µg/mL | < 0.25 µg/mL | 8 to 16 µg/mL | 2 to 4 µg/mL | < 0.25 µg/mL | 32 to 64 µg/mL | > 128 µg/mL |
| CCN1CCN(C(=O)NC(C(=O)N[C@H]2Cc3ccc(F)c(C(=O)O)c3OB2O)c2ncc(O)cc2F)C(=O)C1=O (stereo partly drawn) [Example 145, (3R)-3-(2-(4-ethyl-2,3-dioxopiperazine-1-carboxamido)-2-(3-fluoro-5-hydroxypyridin-2-yl)acetamido)-7-fluoro-2-hydroxy-3,4-dihydro-2H-benzo[e][1,2]oxaborinine-8-carboxylic acid] | > 128 µg/mL | < 0.125 µg/mL | 32 to 64 µg/mL | 8 to 16 µg/mL | 2 to 4 µg/mL | 8 to 16 µg/mL | 8 to 16 µg/mL | 2 to 4 µg/mL | 0.5 to 1 µg/mL | 32 to 64 µg/mL | > 128 µg/mL |
| O=C(O)c1cccc2c1OB(O)[C@@H](NC(=O)C(NC(=O)N1CCN(CCF)C(=O)C1=O)c1ccc(S(=O)(=O)NCCO)cc1)C2 (stereo partly drawn) [Example 213, (3R)-3-(2-(4-(2-fluoroethyl)-2,3-dioxopiperazine-1-carboxamido)-2-(4-(N-(2-hydroxyethyl)sulfamoyl)phenyl)acetamido)-2-hydroxy-3,4-dihydro-2H-benzo[e][1,2]oxaborinine-8-carboxylic acid] | > 128 µg/mL | 0.25 to 0.5 µg/mL (≈ 0.385 to 0.77 µM) | > 128 µg/mL | 8 to 16 µg/mL | 2 to 4 µg/mL | 2 to 4 µg/mL | 32 to 64 µg/mL | 8 to 16 µg/mL | 0.5 to 1 µg/mL | > 128 µg/mL | > 128 µg/mL |
| CC[C@H]1CN(CC)C(=O)C(=O)N1C(=O)NC(C(=O)N[C@H]1Cc2cccc(C(=O)O)c2OB1O)c1ncc(O)cc1F (stereo partly drawn) [Example 218, (3R)-3-(2-((S)-4,6-diethyl-2,3-dioxopiperazine-1-carboxamido)-2-(3-fluoro-5-hydroxypyridin-2-yl)acetamido)-2-hydroxy-3,4-dihydro-2H-benzo[e][1,2]oxaborinine-8-carboxylic acid] | > 128 µg/mL | 0.25 to 0.5 µg/mL (≈ 0.438 to 0.875 µM) | > 128 µg/mL | 32 to 64 µg/mL | 2 to 4 µg/mL | 2 to 4 µg/mL | 32 to 64 µg/mL | 2 to 4 µg/mL | < 0.25 µg/mL | > 128 µg/mL | > 128 µg/mL |
